Columns and labels:
[1] = tested on: WSU-DLCL2 DLBCL xenograft tumors; assay: WSU-DLCL2 (DLBCL) xenograft model; format: in vivo, female SCID mice; details: 5 days on 2 days off for 3 weeks, single agent
Description: Female 6- to 8-weeks-old CB17 SCID mice were obtained from Charles River Laboratories. Mice were housed in a barrier facility in micro-isolator cages at 10 animals per cage. Mice were fed with Harlan-Teklad LM-485 Mouse/Rat Sterilizable Diet and autoclaved water ad libitum and maintained on a 12 hours light-dark cycle. Animals were acclimatized to the animal housing facility for a period of 7 days before the beginning of the experiment. All animal studies were performed under protocols approved by Institutional Animal Care and Use Committees.
Suspensions of Compound 1 were pared in aqueous 0.5% Methyl Cellulose, 0.25% Tween 80 and 50 mM Citrate pH 3. The formulations were homogenized using a Teflon pestle and mortar (Potter-Elvehjem tissue grinder). For multiday studies, the compound was freshly formulated every day. Compound 1 and vehicle were administered by oral gavage. Rituximab was diluted in 0.9% saline and administered intraperitoneally.
Tumor cells were injected subcutaneously in the flank region above the right hind legs of female CB17 SCID mice. When the tumor volumes reach to approximately 200 mm^3, mice bearing tumors of 150-300 mm^3 were randomly assigned to receive oral doses of vehicle, Compound 1, rituximab or combination of Compound 1 (5 days on and 2 days off for 3 weeks) and rituximab (twice a week) for the duration of the study. Tumor volumes were determined before the initiation of treatment and were considered as the starting volumes. Tumors were measured twice a week for the duration of the study. The long and short axes of each tumor were measured using a digital caliper in millimeters. The tumor volumes were calculated using the formula: width^2×length/2. The tumor volumes were expressed in cubic millimeters (mm^3).
Xenograft data are expressed as mean±SEM. Statistical analyses were performed using GraphPad Prism. […]
Xenograft study was conducted with female SCID mice bearing WSU-DLCL2 DLBCL xenograft tumors. […] Tumors were measured twice a week using calipers and tumor volumes were calculated using the formula of W^2×L/2. […]

[2] = tested on: OCI-LY10-Luc CNS DLBCL xenograft; assay: OCI-LY10-Luc CNS lymphoma xenograft model (intracranial); format: in vivo, Nude (nu/nu) mice; details: for % BLI Inhibition on Day 26 / Median Survival: 3 weeks; for % BLI Inhibition on Day 26: relative to vehicle control; for Median Survival: vehicle 35 days
Description: Antitumor activity of Compound 1 was evaluated as a single agent in OCI-LY10-luc diffuse large B-cell lymphoma (DLBCL) xenografted intracranially into nude mice as a model for central nervous system (CNS) lymphoma.
CNS lymphoma study was conducted with OCI-LY-10 cells transfected with luciferase (OCI-LY-10-Luc). Nude (nu/nu) mice were inoculated intracranially into the right cerebral hemisphere of the brain with OCI-LY10-Luc cells. Following inoculation of animals, the tumors were allowed to grow for 5 days. On day 5 following tumor cell inoculation, the mice were imaged using IVIS100 imaging system. The mice having tumors with an average flux ranging between 1×10^7 and 2×10^7 photons/sec were pooled together and randomized into various treatment groups. Compound 1 was formulated in 0.5% Methyl Cellulose, 0.25% Tween 80 and 50 mM Citrate pH 3 (MCT) in water. The animals were orally administered vehicle (MCT) or Compound 1 once daily (QD) for 3 weeks. Doses of Compound 1 ranged between 3 and 30 mg/kg. The positive control pomalidomide (30 mg/kg, QD) formulated in aqueous 0.5% CMC and 0.25% Tween-80 was administered PO. The animals were imaged for bioluminescence once a week using IVIS100 imaging system and monitored for survival. Statistical analysis was performed using a log-rank test between Compound 1-treated and vehicle-treated control groups.

Structure (SMILES): O=C1CC[C@H](N2C(=O)c3cccc(NCc4ccc(CN5CC(N6CCOCC6)C5)cc4F)c3C2=O)C(=O)N1 [Compound 1, (S)-2-(2,6-dioxopiperidin-3-yl)-4-((2-fluoro-4-((3-morpholinoazetidin-1-yl)methyl)benzyl)amino)isoindoline-1,3-dione]
- tumor volume reduction ([1]; Compound 1 1 mg/kg oral): 74%
- tumor volume reduction ([1]; Compound 1 3 mg/kg oral): 86%
- % BLI Inhibition on Day 26 ([2]; 3 mg/kg QD oral): 97.2%
- Median Survival ([2]; 3 mg/kg QD oral): 61 days
- % BLI Inhibition on Day 26 ([2]; 10 mg/kg QD oral): 99.1%
- Median Survival ([2]; 10 mg/kg QD oral): 69 days
- animals survived with no detectable bioluminescence signal ([2]; 10 mg/kg, day 120 (2/9)): 22.2%
- % BLI Inhibition on Day 26 ([2]; 30 mg/kg QD oral): 99.5%
- Median Survival ([2]; 30 mg/kg QD oral): 97 days
- animals survived with no detectable bioluminescence signal ([2]; 30 mg/kg, day 120 (3/9)): 33.3%
